These results are taken from ChEMBL document CHEMBL1201862, “PubChem BioAssay data set” (2004).

The source made the active and inactive calls. For most assays here, no stated cut-off is given here; in the data, actives have a measured EC50 and inactives only a lower limit. Bounds are passed on as bounds.

Test [1] is described as follows: Artemis endonuclease inhibitor potency, dose response, biochemical, fluorescence intensity (AID 720701).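 Further: Artemis endonuclease enzyme.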 The test is classed as functional.
The target of test [2] is T1, Mannose-6-phosphate isomerase (Homo sapiens, UniProt P34949).
T1 sequence (P34949 whole entry): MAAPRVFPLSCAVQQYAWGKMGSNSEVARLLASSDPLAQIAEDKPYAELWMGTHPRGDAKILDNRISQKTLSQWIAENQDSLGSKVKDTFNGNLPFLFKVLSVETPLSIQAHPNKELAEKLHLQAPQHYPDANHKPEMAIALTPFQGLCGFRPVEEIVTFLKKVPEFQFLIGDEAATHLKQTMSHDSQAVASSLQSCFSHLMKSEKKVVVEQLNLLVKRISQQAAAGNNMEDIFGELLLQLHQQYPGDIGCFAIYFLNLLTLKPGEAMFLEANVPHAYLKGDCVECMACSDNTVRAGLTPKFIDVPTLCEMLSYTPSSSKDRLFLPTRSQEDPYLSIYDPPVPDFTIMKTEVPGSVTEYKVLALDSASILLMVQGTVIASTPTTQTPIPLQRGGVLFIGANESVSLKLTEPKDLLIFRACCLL
Nature of the test: human PMI inhibitors, high substrate, primary screen, biochemical, fluorescence intensity, high mannose 6-phosphate (AID 1220).

In test [3] the target is T1, Mannose-6-phosphate isomerase. Nature of the test: inhibitors of human PMI, primary screen, biochemical, fluorescence intensity, coupled assay (AID 1209).
Test [4] is described as follows: Luminescence Cell-Based Dose Response HTS to Identify Inhibitors of 5'UTR Stem-Loop Driven Prion Protein mRNA Translation in H4 Neuroglioblastoma Cells. [Related pubchem assays: 1827 (Project Summary), 1813 (Primary HTS)]. The test is classed as functional.
Test [5] in a line: cytotoxicity toward NIH3T3 fibroblasts, dose response, counter-screen, cell-based, ATP luminescence, mouse fibroblasts (AID 2010).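 Further: cells exposed to compound for about 90 hours before reading.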 In kind it is functional.
Test [6] is described as follows: inhibitors of intracellular T. cruzi replication, confirmation, NIH3T3 host cells, beta-gal luminescence (AID 2044).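 Further: intracellular parasites grown in NIH/3T3 mouse fibroblasts as host cells; luminescent beta-galactosidase reporter signal from transgenic T. cruzi replicating inside host cells; inhibitors lower the luminescence signal.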 In kind it is functional, cell-based.
Test [7] relates to INS1. Put plainly: beta cell apoptosis inhibitors, cytokine rescue, dose response, luminescence, retest (AID 449756).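 Further: cell death triggered by IL-1 beta plus TNF-alpha plus IFN-gamma mixture; protective hits raise ATP signal compared with cytokine alone wells.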 The note with it: Rattus norvegicus. In kind it is functional, cell-based.
Test [8] in a line: inhibitors of firefly luciferase expression or activity, dose response, H4 neuroglioma cells, luminescence (AID 1990). The test is classed as functional, cell-based.
Test [9] is described as follows: cells.
Test [10] can be described thus: inhibitors of SNCA 5'UTR-driven reporter translation, confirmation, H4 neuroglioma cells, luminescence (AID 1988). In kind it is functional, cell-based.
In test [11] the target is Mitogen-activated protein kinase 10 (Homo sapiens, UniProt P53779). Put plainly: Dose response biochemical screening assay for inhibitors of c-Jun N-Terminal Kinase 3 (JNK3). [Related pubchem assays: 746 ].
Mitogen-activated protein kinase 10, sequence (P53779 whole entry): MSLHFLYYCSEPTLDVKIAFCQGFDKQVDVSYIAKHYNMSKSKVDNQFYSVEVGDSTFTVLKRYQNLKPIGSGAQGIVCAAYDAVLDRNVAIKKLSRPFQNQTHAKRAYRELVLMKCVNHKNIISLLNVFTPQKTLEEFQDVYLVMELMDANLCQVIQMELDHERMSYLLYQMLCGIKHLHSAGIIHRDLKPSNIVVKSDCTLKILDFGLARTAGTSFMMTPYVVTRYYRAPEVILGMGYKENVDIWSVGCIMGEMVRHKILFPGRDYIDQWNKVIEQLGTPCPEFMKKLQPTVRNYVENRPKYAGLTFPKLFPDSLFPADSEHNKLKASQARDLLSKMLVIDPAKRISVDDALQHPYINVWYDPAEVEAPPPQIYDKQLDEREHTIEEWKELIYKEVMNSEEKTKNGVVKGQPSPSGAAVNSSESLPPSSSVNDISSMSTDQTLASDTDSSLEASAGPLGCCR
Test [12] in a line: Luminescence Cell-Based Dose Response to Identify Activators of Luciferase Translation or Activity in H4-C Neuroglioblastoma Cells. [Related pubchem assays: 1829 (Project Summary), 1814 (Primary HTS)]. In kind it is functional.
Test [13] can be described thus: Luminescence Cell-Based Dose Confirmation HTS to Identify Activators of 5'UTR Stem-Loop Driven Alpha-Synuclein mRNA Translation in H4 Neuroglioblastoma Cells. [Related pubchem assays: 1829 (Project Summary), 1814 (Primary HTS)]. The test is classed as functional.
The subject of test [14] is H4. Nature of the test: Luminescence Cell-Based Dose Response HTS to Identify Activators of 5'UTR Stem-Loop Driven Prion Protein mRNA Translation in H4 Neuroglioblastoma Cells. [Related pubchem assays: 1829 (Project Summary), 1814 (Primary HTS)]. The test is classed as functional. The following applies: Homo sapiens.
A short description of test [15]: Luminescence Cell-Based Dose Response HTS to Identify Activators of Luciferase Translation or Activity in H4 […] Cells. [Related pubchem assays: 1829 (Project Summary), 1814 (Primary HTS)]. The test is classed as functional.
The nature of test [16]: Luminescence Cell-Based Dose Confirmation to Identify Activators of 5'UTR Stem-Loop Driven Alpha-Synuclein mRNA Translation in H4 Neuroglioblastoma Cells. [Related pubchem assays: 1829 (Project Summary), 1814 (Primary HTS)]. The test is classed as functional.
Test [17] in a line: Luminescence Cell-Based Dose Response to Identify Activators of 5'UTR Stem-Loop Driven Prion Protein mRNA Translation in H4-C Neuroglioblastoma Cells. [Related pubchem assays: 1829 (Project Summary), 1814 (Primary HTS)]. In kind it is functional.
Test [18] addresses Estrogen receptor beta (Homo sapiens, UniProt Q92731). Nature of the test: ERβ–SRC-3 coactivator interaction inhibitors, confirmation, orthogonal assay, biochemical, ELISA, streptavidin-HRP readout (AID 1060). (In general: In an ELISA, binding on a coated surface is turned into a signal by an enzyme label.)
In test [19] the target is T2, Estrogen receptor (Homo sapiens, UniProt P03372).
T2 sequence (P03372 whole entry): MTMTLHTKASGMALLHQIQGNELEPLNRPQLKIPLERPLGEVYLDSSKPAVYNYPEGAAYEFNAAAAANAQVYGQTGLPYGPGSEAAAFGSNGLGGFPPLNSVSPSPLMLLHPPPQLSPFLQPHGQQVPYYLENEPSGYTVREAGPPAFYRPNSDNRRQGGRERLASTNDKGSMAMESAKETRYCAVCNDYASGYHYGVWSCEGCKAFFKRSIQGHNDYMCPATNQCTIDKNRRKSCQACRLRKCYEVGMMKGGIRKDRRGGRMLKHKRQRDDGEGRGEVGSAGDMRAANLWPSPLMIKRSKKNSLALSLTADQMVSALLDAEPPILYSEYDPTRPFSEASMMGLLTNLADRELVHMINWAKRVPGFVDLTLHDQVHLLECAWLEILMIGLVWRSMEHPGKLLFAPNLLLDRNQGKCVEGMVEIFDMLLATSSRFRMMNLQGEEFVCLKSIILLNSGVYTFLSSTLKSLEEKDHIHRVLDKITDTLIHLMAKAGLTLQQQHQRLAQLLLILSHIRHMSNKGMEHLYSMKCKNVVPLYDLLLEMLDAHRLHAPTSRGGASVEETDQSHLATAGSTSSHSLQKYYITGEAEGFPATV

Test [20] relates to Streptococcus. Nature of the test: Group A Streptococcus viability loss, dose response, counter-screen for streptokinase expression inhibitor project, luminescence, BacTiterGlo (AID 1915).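 Further: potency for reduction of bacterial viability or growth.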 In kind it is functional, organism-based. Background: Counterscreens check selectivity or assay interference.
The subject of test [21] is Streptococcus sp. 'group A'. Put plainly: growth inhibition of control SK(-) GAS strain, dose response, counter-screen for streptokinase expression inhibitor project, luminescence, kanamycin, BacTiterGlo, confirmation (AID 1900). In kind it is functional, organism-based.
For test [22], the target named is T3, Streptokinase A (Streptococcus pyogenes serotype M1, UniProt P10520).
T3 sequence (P10520 whole entry): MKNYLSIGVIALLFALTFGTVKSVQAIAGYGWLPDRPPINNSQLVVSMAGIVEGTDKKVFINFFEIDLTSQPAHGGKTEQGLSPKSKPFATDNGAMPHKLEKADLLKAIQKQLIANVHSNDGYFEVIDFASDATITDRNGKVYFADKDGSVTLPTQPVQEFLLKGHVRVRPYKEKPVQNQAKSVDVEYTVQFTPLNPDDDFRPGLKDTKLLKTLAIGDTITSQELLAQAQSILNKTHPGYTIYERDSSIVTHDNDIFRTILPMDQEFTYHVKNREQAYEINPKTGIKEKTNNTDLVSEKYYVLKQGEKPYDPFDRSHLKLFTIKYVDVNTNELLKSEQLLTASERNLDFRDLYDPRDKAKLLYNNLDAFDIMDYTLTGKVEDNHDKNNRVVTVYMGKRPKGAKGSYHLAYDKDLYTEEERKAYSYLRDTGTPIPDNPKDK
Put plainly: S. pyogenes streptokinase expression inhibitors, potency, dose response, plasminogen activation absorbance, OD405 (AID 1914).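 Further: secreted streptokinase activity via plasminogen activation per viability signal from cell pellet.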 The test is classed as functional, Streptococcus pyogenes M1 GAS.

Estrogen receptor beta, sequence (Q92731 whole entry): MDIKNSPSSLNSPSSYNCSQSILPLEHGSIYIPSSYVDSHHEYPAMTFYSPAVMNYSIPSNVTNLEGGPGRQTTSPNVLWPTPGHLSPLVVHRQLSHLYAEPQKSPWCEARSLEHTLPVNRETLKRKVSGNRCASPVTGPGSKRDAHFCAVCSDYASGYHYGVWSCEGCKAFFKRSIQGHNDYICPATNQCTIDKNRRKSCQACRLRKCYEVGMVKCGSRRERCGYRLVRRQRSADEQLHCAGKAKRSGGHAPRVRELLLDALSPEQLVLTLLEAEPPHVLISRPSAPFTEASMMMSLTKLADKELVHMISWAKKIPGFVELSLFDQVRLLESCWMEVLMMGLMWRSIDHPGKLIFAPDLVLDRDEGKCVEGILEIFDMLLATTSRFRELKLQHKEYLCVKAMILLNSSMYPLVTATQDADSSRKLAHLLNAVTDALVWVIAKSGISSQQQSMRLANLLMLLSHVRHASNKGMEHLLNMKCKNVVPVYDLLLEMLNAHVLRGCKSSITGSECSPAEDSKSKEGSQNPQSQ

By IC50 is commonly meant the point on the concentration scale where inhibition reaches its midpoint. In the case of `Cc1cc(C)c(C(N)=O)c(Nc2cccc3ccccc23)n1`, the IC50 in [1] was > 20 µM (inactive); in [2], > 50 µM (not active); in [3] it was > 50 µM (not active).

What is called EC50 is the concentration giving half of the maximal effect. What is called AC50 is the midpoint of the concentration-response curve, whichever way the signal moves. Consider `O=[N+]([O-])c1ccccc1-c1cc(-c2ccccc2)cc(-c2ccccc2)[n+]1Cc1ccccc1Cl.[O-][Cl+3]([O-])([O-])[O-]`, for which the EC50 in test [4] was > 120 µM (not active); in test [5], > 60 µM (not active); in test [6], < 0.1 µM (active); in [8] it was 11.3 µM (active); in test [9] it was 0.074 µM (active); in [10], > 120 µM (not active). Also, in [7], the AC50 is 2.14 µM (active).

In the case of `C1CCC(OCCN2CCN(CCOC3CCCCC3)CC2)CC1`, the concentration for a half-maximal effect (EC50) is > 30 µM (not active) in test [5], < 0.1 µM (active) in test [6] and 0.067 µM (active) in test [9].

In the case of `O=C(Nc1nncs1)c1ccc(N2C(=O)C3C4C=CC(C4)C3C2=O)cc1` (stereo not drawn), the IC50 in test [11] is reported as 62.9 µM (not active).

Take `C#CCSc1nnc(-c2ccc(OC)cc2)o1`: the EC50 in [12] is 5.49 µM (active); in [13] it was 7.23 µM (active); in test [14] it was > 120 µM (not active); in [15], < 0.1 µM (inconclusive); in test [16], 0.138 µM (active); in [17], 3.33 µM (active).

As for `O=C(NCCSc1ccccc1)c1ccccc1`, the concentration for a half-maximal effect (EC50) in test [12] was 0.347 µM (active); in test [14], > 120 µM (not active); in test [15], < 0.1 µM (inconclusive); in test [16], 0.198 µM (active); in test [17], 0.281 µM (active).

Consider `Nc1ccc(-n2c(N)c(C(=O)NCc3ccc4c(c3)OCO4)c3nc4ccccc4nc32)cc1`, for which the IC50 in test [11] was > 93.1 µM (not active).

On to `CC(=O)C(C(C)=O)c1c(Cl)c(O)c(O)c2c(C(=O)c3ccccc3)coc12`, for which the concentration for half-maximal inhibition (IC50) in test [2] and in [3] was > 50 µM (not active) throughout.

Regarding `Cn1c(C(=O)N2CCN(Cc3ccc4c(c3)OCO4)CC2)cc2c(=O)n(C)c3ccccc3c21`, the IC50 in [11] was 72.6 µM (not active).

For the compound `N#CC1=C(N)OC2=C(CCC/C2=C/c2ccoc2)C1c1ccoc1` (stereo not drawn), the IC50 was 3.99 µM (not active) in test [18] and 10 µM (active) in [19].

As for `Cc1ccc(N2C(=O)CC(Sc3nc[nH]n3)C2=O)cc1` (stereo not drawn), the IC50 in test [3] is > 50 µM (not active).

Regarding `O=C(N/N=C/c1ccc([N+](=O)[O-])o1)c1cn(-c2ccccc2)nc1-c1ccc(F)cc1`, the EC50 in test [5] was > 60 µM (not active); in test [20], 2.99 µM (active); in [6], < 0.1 µM (active); in [9], 0.03 µM (active); in test [21] it was 0.841 µM (active); in test [22], > 150 µM (not active).
